From patent US20120009320A1, “COMPOSITIONS COMPRISING MONATIN AND CALCIUM” (priority 2009, published 2012)
Where a name gives a salt, the structure may show the parent alone.

Columns and labels:
panelists = assay: Three-member panel rating (0-9 scale) of difference in sweetness due to calcium at <=200 ppm; type: in vivo, human; set-up: key: 0 = none; 1 = trace; 2 = faint; 3 = slight; 4 = mild; 5 = moderate; 6 = definite; 7 = strong; 8 = very strong; 9 = extreme; conditions: 20 ppm monatin in water, vs control without calcium
Procedure: The samples in Table 5 were prepared by adding 20 ppm of monatin to water in combination with an amount of calcium ranging between 12.5 ppm and 200 ppm. A control sample having 20 ppm of monatin and no calcium was also used. The monatin was in the R,R, form and prepared through a biosynthetic pathway as disclosed in U.S. Patent Publication No. 2005/282260. A three-member panel was used to evaluate sweetness, but instead of quantifying the sample in terms of sweetness equivalency (SEV), the panelists assigned the sample a number between 0 and 9 (see description of scale under Table 5).

[1] = Sweetness match of monatin-sweetened chocolate milk to 10% sucrose target; type: in vivo
Procedure: A chocolate milk composition sweetened with 42 DE high fructose corn syrup (HFCS) to about 10% sucrose was prepared by conventional methods common to one skilled in the art of flavored milk manufacturing to serve as a sweetness target. The amount of monatin in the five samples was about 25 ppm, about 30 ppm, about 35 ppm, about 40 ppm and about 45 ppm. Each of the five samples of monatin-sweetened milk were compared to the target milk sample containing 10% sucrose. The monatin-sweetened milk that most closely matched the sweetness of the target sucrose sample was chosen.

[2] = Sweetness match of monatin-sweetened vanilla ice cream to 13% sucrose target; type: in vivo
Procedure: A vanilla ice cream sweetened with about 13% sucrose was prepared by conventional methods common to one skilled in the art of ice cream manufacturing to serve as a sweetness target. Then a set of seven (7) ice cream samples were sweetened with R,R-monatin monopotassium salt using the ingredients listed in Table 13. The amount of monatin in the seven samples was about 35 ppm, about 40 ppm, about 45 ppm, about 50 ppm, about 55 ppm, about 60 ppm and about 70 ppm. Each of the seven samples of monatin-sweetened ice cream were compared to the target ice cream sample containing 13% sucrose. The monatin-sweetened ice cream that most closely matched the sweetness of the target sucrose sample was chosen.

In the case of `NC(CC(O)(Cc1c[nH]c2ccccc12)C(=O)O)C(=O)O` (stereo not drawn) [R,R-Monatin, 2R,4R-Monatin mono potassium salt], the “Difference in Sweetness Due to Calcium” value (panelists; calcium 12.5 ppm) was 1, the “Difference in Sweetness Due to Calcium” value (panelists; calcium 25 ppm) was 3 and the “Difference in Sweetness Due to Calcium” value (panelists; calcium 50 ppm) was 4. For the same molecule, the “Difference in Sweetness Due to Calcium” value (panelists; calcium 100 ppm) was 5, the “Difference in Sweetness Due to Calcium” value (panelists; calcium 200 ppm) was 6 and the “monatin concentration that most closely matched the sweetness of milk sweetened to 10% sucrose” value [1] was “about 35 ppm”. The “times as sweet as sucrose” value [1] was “about 2800 times”, the “monatin concentration that most closely matched the sweetness of ice cream sweetened to 13% sucrose” value [2] was “about 45 ppm” and the “times as sweet as sucrose” value [2] was “about 2800 times”.
